Biological target: p53 core domain (WT p53) (Homo sapiens, UniProt P04637)
Assay: intrinsic fluorescence quenching
Format: binding

Chain of p53 core domain (WT p53) (P04637 94-312): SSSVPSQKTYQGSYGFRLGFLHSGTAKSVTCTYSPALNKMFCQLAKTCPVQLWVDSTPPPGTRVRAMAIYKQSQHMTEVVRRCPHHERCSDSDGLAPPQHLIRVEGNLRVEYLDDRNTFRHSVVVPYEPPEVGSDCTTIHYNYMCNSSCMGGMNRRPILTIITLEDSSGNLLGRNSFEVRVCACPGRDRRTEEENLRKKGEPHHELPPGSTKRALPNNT

Work on `CC1(C)CC(NCC(=O)N2C/C(=C\c3ccc(C#N)cc3)C(=O)/C(=C/c3ccc(C#N)cc3)C2)C(C)(C)N1[O]` (stereo not shown) [AKT-100] yielded a Kd of 9.8 ± 0.1 µM.
